Results from patent US5604236A, “Beta-carboline thromboxane synthase inhibitors” (Eli Lilly and Company, priority 1995, dated 1997).

Assays:
[1] = tested on: 6-keto-PGF1a (prostacyclin generation); settings: stated as well known; result in words; cited from earlier work
TXB2 = experiment: Serum TXB2 levels ex vivo after oral or i.v. administration to rats; type: in vivo; settings: rat
Protocol: The blood was allowed to clot in glass tubes for 1 hour at 37° C. Serum was collected after sedimentation of the clot by centrifugation at 2000×g for 15 minutes in a Beckman table top centrifuge. The levels of TXB2 were measured in the serum by radioimmunoassay.

thromboxane synthase = molecular target: T1, thromboxane synthase (Homo sapiens, UniProt P24557); experiment: Thromboxane Synthase Inhibition (TSI) Test, serum TXB2 by radioimmunoassay in human whole blood; type: cell-based; settings: fresh whole human blood, 30 min at 37° C., then CaCl2 1 hour; TXB2 RIA; read-out: IC50 (concentration of compound required to reduce thromboxane generation to 50% of that obtained with vehicle alone)
T1 construct: incubated with fresh whole human blood, that had been anticoagulated with 0.38% trisodium citrate; from tissue; host or cells: fresh whole human blood (citrated, recalcified to clot)
T1 sequence (P24557 1-533): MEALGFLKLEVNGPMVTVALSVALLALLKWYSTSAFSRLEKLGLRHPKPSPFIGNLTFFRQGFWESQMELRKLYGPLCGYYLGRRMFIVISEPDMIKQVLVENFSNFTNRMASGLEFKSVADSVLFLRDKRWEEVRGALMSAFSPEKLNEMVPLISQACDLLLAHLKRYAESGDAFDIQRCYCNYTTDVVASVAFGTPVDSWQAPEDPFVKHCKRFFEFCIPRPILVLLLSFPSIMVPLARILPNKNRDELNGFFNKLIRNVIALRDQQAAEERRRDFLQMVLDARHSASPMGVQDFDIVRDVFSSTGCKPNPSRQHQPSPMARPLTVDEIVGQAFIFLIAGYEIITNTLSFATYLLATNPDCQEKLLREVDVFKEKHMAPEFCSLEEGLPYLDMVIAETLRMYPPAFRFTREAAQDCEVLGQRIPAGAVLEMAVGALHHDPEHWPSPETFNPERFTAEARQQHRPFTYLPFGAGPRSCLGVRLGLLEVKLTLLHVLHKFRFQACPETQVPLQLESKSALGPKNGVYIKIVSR
Protocol: (§1) The ability of the compounds of the present invention to be an effective thromboxane synthase inhibitors were evaluated in the following Thromboxane Synthase Inhibition (TSI) Assay with the results shown in Table 2 below: The test compounds were dissolved in dimethylsulfoxide. The compound solutions were incubated with fresh whole human blood, that had been anticoagulated with 0.38% trisodium citrate, for 30 minutes at 37° C. After 30 minutes, 0.025 ml of 0.5M calcium chloride solution was added to each 1 ml of blood and further incubated for one hour at 37° C. Serum was prepared by centrifugation of the blood at 2000×g for 15 minutes in a Beckman table top centrifuge. Serum TXB2 and 6-keto-PGF1a, the stable metabolites of and markers of synthesis of TXA2 and prostacyclin respectively, were measured by radioimmunoassay by commonly used test methods (see, Refs.,1 & 2 below). Results from the radioimmunoassay of TXB2 were used to calculate the IC50 (concentration of compound required to reduce thromboxane generation to 50% of that obtained with vehicle alone).

[2] = tested on: 6-keto-PGF1a (prostacyclin generation); experiment: Serum 6-keto-PGF1a (prostacyclin generation) by radioimmunoassay in human whole blood; type: cell-based; settings: for Serum 6-keto-PGF1a: vehicle 2.43
Protocol: as §1, with “The” for “The ability of the compounds of the present invention to be an effective thromboxane synthase inhibitors were evaluated in the following Thromboxane Synthase Inhibition (TSI) Assay with the results shown in Table 2 below: The”
Data determined from the radioimmunoassay of 6-keto-PGF1a (reflecting prostacyclin generation) allowed a determination of the specificity of the compound of example 1 for the inhibition of thromboxane synthase as indicated by increased levels of 6-keto-PGF1a relative to the less specific inhibition of cyclooxygenase by aspirin.

Q: For `CC(=O)Oc1ccccc1C(=O)O` [Aspirin], which “generation of 6-keto-PGF1a” value [1] is on record?
A: Its value is “completely inhibit”.

Q: With `O=C(O)CCCCCn1c2ccccc2c2ccncc21` [Example 1, 9H-Pyrido(3,4-β)indole-9-hexanoic acid] as the compound, how does the “Serum TXB2 (% control)” value (TXB2; i.v., 0.01 mg/kg, 15 minutes) read?
A: The value was 69 % control.

Q: And the “Serum TXB2 (% control)” value (TXB2; i.v., 0.1 mg/kg, 15 minutes)?
A: The value was 14 % control.

Q: And the “Serum TXB2 (% control)” value (TXB2; i.v., 1 mg/kg, 15 minutes)?
A: The value was 4 % control.

Q: What about the “availability by oral and i.v. routes” value (TXB2; inferred from decreased serum TXB2, result in words) of the same compound?
A: The value was “availability of the compounds by both oral and i.v. routes”.

Q: What about the “Serum TXB2 (% control)” value (TXB2; oral, 0.1 mg/kg, one hour) of the same compound?
A: Its value is 54 % control.

Q: And the “Serum TXB2 (% control)” value (TXB2; oral, 1 mg/kg, one hour)?
A: Its value is 16 % control.

Q: And the “Serum TXB2 (% control)” value (TXB2; oral, 10 mg/kg, one hour)?
A: The value was 2 % control.

Q: And the “Serum TXB2 (% control)” value (TXB2; oral, 100 mg/kg, one hour)?
A: Its value is 1 % control.

Q: And the IC50 (thromboxane synthase)?
A: Its IC50 is 0.053 µM.

Q: And the “Serum 6-keto-PGF1a” value ([2]; 0.001 μM)?
A: The value was 3.01 ng/mL.

Q: And the “Serum 6-keto-PGF1a” value ([2]; 0.01 μM)?
A: The value was 5.09 ng/mL.

Q: And the “Serum 6-keto-PGF1a” value ([2]; 0.1 μM)?
A: The value was 7.07 ng/mL.

Q: What about the “Serum 6-keto-PGF1a” value ([2]; 1 μM) of the same compound?
A: Its value is 7.71 ng/mL.

Q: And the “Serum 6-keto-PGF1a” value ([2]; 10 μM)?
A: Its value is 7.82 ng/mL.

Q: What about the “effect on human serum 6-keto-PGF1a levels” value ([2]; human serum, result in words) of the same compound?
A: The value was “dose-dependent stimulatory effect”.

Q: For `O=C(O)CCCn1c2ccccc2c2ccncc21` [Example 2, 9H-Pyrido (3,4-β)indole-9-butanoic acid], which IC50 (thromboxane synthase) is on record?
A: Its IC50 is 19 µM.

Q: Which IC50 (thromboxane synthase) does the source give for `O=C(O)CCCCn1c2ccccc2c2ccncc21` [Example 3, 9H-Pyrido (3,4-β)indole-9-pentanoic acid] here?
A: The IC50 was 0.1 µM.

Q: Which IC50 (thromboxane synthase) does the source give for `O=C(O)CCCCCCn1c2ccccc2c2ccncc21` [Example 4] here?
A: Its IC50 is 0.21 µM.

Q: Which IC50 (thromboxane synthase) does the source give for `O=C(O)CCCCCn1c2ccc(Br)cc2c2ccncc21` [Example 5, 6-Bromo-9H-pyrido(3,4-β)indole-9-hexanoic acid] here?
A: The IC50 was 0.068 µM.

Q: Which IC50 (thromboxane synthase) does the source give for `Cc1ccc2c(c1)c1ccncc1n2CCCCCC(=O)O` [Example 6, 6-Methyl-9H-pyrido(3,4-β)indole-9-hexanoic acid] here?
A: Its IC50 is 0.031 µM.

Q: Which IC50 (thromboxane synthase) does the source give for `COc1ccc2c(c1)c1ccncc1n2CCCCCC(=O)O` [Example 7, 6-Methoxy-9H-pyrido(3,4-β)indole-9-hexanoic acid] here?
A: The IC50 was 0.049 µM.

Q: Which IC50 (thromboxane synthase) does the source give for `O=C(O)CCCCCn1c2ccc([N+](=O)[O-])cc2c2ccncc21` [Example 8, 6-Nitro-9H-pyrido(3,4-β)indole-9-hexanoic acid] here?
A: The IC50 was 0.091 µM.
